Patent US9382208B1, “Negative allosteric modulators of metabotropic glutamate receptor 2” (Vanderbilt University, priority 2015, dated 2016)

Target: T1, rat mGlu2 (Rattus norvegicus, UniProt P31421)
T1 construct: expressed in transfected cells
Test: mGlu2 Ca2+ flux assay
Type: cell-based
Conditions: for IC50: Gα15 HEK293 cells stably expressing rat mGlu2, glutamate EC80 addition, read-out: rat mGlu2 IC50; for remaining activity at 30 µM: amplitude of response in the presence of 30 μM test compound as percentage of maximal response to glutamate, read-out: rat mGlu2 Glu max (%)
Procedure: Gα15 HEK293 cells stably expressing rat mGlu2 were plated in black-walled, clear-bottomed, poly-D-lysine coated 384-well plates in 20 μL of assay medium (DMEM containing 10% dialyzed FBS, 20 mM HEPES, and 1 mM sodium pyruvate) at a density of 12K cells/well. The cells were grown overnight at 37° C. in the presence of 5% CO2. The next day, medium was removed and the cells incubated with 20 μL of 2.3 μM Fluo-4, AM prepared as a 2.3 mM stock in DMSO and mixed in a 1:1 ratio with 10% (w/v) pluronic acid F-127 and diluted in assay buffer (Hank's balanced salt solution, 20 mM HEPES, and 2.5 mM probenecid) for 45 minutes at 37° C. Dye was removed, 20 μL of assay buffer was added, and the plate was incubated for 5 minutes at room temperature.
Ca^2+ flux was measured using the Functional Drug Screening System (FDSS7000, Hamamatsu, Japan). After establishment of a fluorescence baseline for about 3 seconds, the compounds of the present invention were added to the cells, and the response in cells was measured. 2.3 minutes later an EC20 concentration of the mGlu2 receptor agonist glutamate was added to the cells, and the response of the cells was measured for 1.9 minutes; an EC80 concentration of agonist was added and readings taken for an additional 1.7 minutes. All test compounds were dissolved and diluted to a concentration of 10 mM in 100% DMSO. Compounds were then serially diluted 1:3 in DMSO into 10 point concentration response curves, transferred to daughter plates, and further diluted into assay buffer to a 2× stock. Calcium fluorescence measures were recorded as fold over basal fluorescence; raw data was then normalized to the maximal response to glutamate. Antagonism of the agonist response of the mGlu2 receptor in the present invention was observed as a decrease in response to nearly maximal concentrations of glutamate in the presence of compound compared to the response to glutamate in the absence of compound.
The raw data file containing all time points was used as the data source in the analysis template. This was saved by the FDSS as a tab-delimited text file. Data were normalized using a static ratio function (F/F0) for each measurement of the total 360 values per well divided by each well's initial value. Data were then reduced to peak amplitudes (Max−Initial Min) using a time range that starts approximately 3 seconds prior to the glutamate EC80 addition and continues for approximately 90 seconds. This is sufficient time to capture the peak amplitude of the cellular calcium response. Individual amplitudes were expressed as % ECMax by multiplying each amplitude by 100 and then dividing the product by the mean of the amplitudes derived from the glutamate ECMax-treated wells. IC50 values for test compounds were generated by fitting the normalized values versus the log of the test compound concentration (in mol/L) using a 4 parameter logistic equation where none of the parameters were fixed. Each of the three values collected at each concentration of test compound were weighted evenly.
For NAMs, potency (IC50) and maximum response (% Glu Max), i.e. the amplitude of response in the presence of 30 μM test compound as a percentage of the maximal response to glutamate, are reported. […] Compounds with no measurable activity are designated as “>30,000 nM” since the top concentration of compound tested in the assay is 30 μM.

T1 sequence (P31421 19-872): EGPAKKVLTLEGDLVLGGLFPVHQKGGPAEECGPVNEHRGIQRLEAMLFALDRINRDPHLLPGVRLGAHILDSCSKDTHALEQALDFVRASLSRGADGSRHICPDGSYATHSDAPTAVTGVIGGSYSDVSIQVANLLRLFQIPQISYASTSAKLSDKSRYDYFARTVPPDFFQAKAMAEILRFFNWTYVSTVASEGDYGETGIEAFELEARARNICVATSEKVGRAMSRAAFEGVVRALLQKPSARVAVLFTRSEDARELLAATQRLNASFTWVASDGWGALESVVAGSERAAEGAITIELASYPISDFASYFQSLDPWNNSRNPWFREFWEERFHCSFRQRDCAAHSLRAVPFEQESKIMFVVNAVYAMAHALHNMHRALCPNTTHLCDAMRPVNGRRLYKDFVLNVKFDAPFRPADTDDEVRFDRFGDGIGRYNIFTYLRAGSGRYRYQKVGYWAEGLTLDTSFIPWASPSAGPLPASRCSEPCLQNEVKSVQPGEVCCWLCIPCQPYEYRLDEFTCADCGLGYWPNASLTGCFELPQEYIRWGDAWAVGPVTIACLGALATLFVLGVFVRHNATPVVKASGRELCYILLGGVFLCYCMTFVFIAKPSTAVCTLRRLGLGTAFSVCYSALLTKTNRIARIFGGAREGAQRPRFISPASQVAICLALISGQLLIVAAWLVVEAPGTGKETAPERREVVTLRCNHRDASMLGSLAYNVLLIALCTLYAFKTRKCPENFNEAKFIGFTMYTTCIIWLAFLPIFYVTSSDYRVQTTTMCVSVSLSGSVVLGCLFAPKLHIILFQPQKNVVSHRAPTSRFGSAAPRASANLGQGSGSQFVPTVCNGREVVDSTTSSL

Row | IC50 | remaining activity at 30 µM | Compound
1 | 1360 nM | 0.93% | CN1CCN(Cc2ccc3c(c2)c(=O)c(C(N)=O)cn3-c2ccc(F)cc2)CC1 [Compound 87, 1-(4-fluorophenyl)-6-((4-methylpiperazin-1-yl)methyl)-4-oxo-1,4-dihydroquinoline-3-carboxamide]
2 | 1320 nM | 1.08% | NC(=O)c1cn(-c2ccc(F)cc2)c2ccc(N3CCC(N4CCOCC4)C3)cc2c1=O (centres unmarked) [Compound 50, 1-(4-fluorophenyl)-6-(3-morpholinopyrrolidin-1-yl)-4-oxo-1,4-dihydroquinoline-3-carboxamide]
3 | 440 ± 97 nM | 1.52 ± 0.63% | NC(=O)c1cn(-c2ccc(F)cc2)c2ccc(CN3CCSCC3)cc2c1=O [Compound 2, 1-(4-fluorophenyl)-4-oxo-6-(thiomorpholinomethyl)-1,4-dihydroquinoline-3-carboxamide]
4 | 1150 nM | 1.73% | CN(c1ccncc1)c1ccc2c(c1)c(=O)c(C(N)=O)cn2-c1ccc(F)cc1 [Compound 18, 1-(4-fluorophenyl)-6-(methyl(pyridin-4-yl)amino)-4-oxo-1,4-dihydroquinoline-3-carboxamide]
5 | 4410 nM | 2.23% | C[C@@H]1CN(Cc2cc(F)c3c(c2)c(=O)c(C(N)=O)cn3-c2ccc(F)cc2)C[C@H](C)O1 [Compound 92, 6-((cis-2,6-dimethylmorpholino)methyl)-8-fluoro-1-(4-fluorophenyl)-4-oxo-1,4-dihydroquinoline-3-carboxamide]
6 | 311 nM | 1.14% | COc1ccc(-n2cc(C(N)=O)c(=O)c3cc(CCc4cnc(C)nc4)ccc32)c(F)c1 [Compound 13, 1-(2-fluoro-4-methoxyphenyl)-6-(2-(2-methylpyrimidin-5-yl)ethyl)-4-oxo-1,4-dihydroquinoline-3-carboxamide]
7 | 167 nM | 2.57% | CCN(Cc1cccnc1)c1ccc2c(c1)c(=O)c(C(N)=O)cn2-c1ccc(F)cc1 [Compound 42, 6-(ethyl(pyridin-3-ylmethyl)amino)-1-(4-fluorophenyl)-4-oxo-1,4-dihydroquinoline-3-carboxamide]
8 | 694 nM | 1.47% | CS(=O)(=O)N1CCN(Cc2ccc3c(c2)c(=O)c(C(N)=O)cn3-c2ccc(F)cc2)CC1 [Compound 83, 1-(4-fluorophenyl)-6-((4-(methylsulfonyl)piperazin-1-yl)methyl)-4-oxo-1,4-dihydroquinoline-3-carboxamide]
9 | 352 nM | 1.47% | NC(=O)c1cn(-c2ccc(F)cc2)c2ccc(COc3ccc(F)nc3)cc2c1=O [Compound 45, 1-(4-fluorophenyl)-6-(((6-fluoropyridin-3-yl)oxy)methyl)-4-oxo-1,4-dihydroquinoline-3-carboxamide]
10 | 5040 nM | 1.85% | NC(=O)c1cn(-c2ccc(F)cc2)c2ccc(N3Cc4cccnc4C3)cc2c1=O [Compound 43, 1-(4-fluorophenyl)-4-oxo-6-(5H-pyrrolo[3,4-b]pyridin-6(7H)-yl)-1,4-dihydroquinoline-3-carboxamide]
11 | 155 nM | 1.33% | CN(c1cccnc1)c1ccc2c(c1)c(=O)c(C(N)=O)cn2-c1ccc(F)cc1 [Compound 20, 1-(4-fluorophenyl)-6-(methyl(pyridin-3-yl)amino)-4-oxo-1,4-dihydroquinoline-3-carboxamide]
12 | 534 nM | 1.97% | NC(=O)c1cn(-c2ccc(F)cc2)c2ccc(COc3ccnc(C(F)(F)F)c3)cc2c1=O [Compound 34, 1-(4-fluorophenyl)-4-oxo-6-(((2-(trifluoromethyl)pyridin-4-yl)oxy)methyl)-1,4-dihydroquinoline-3-carboxamide]

Row | Compound | IC50 | remaining activity at 30 µM
13 | NC(=O)c1cn(-c2ccc(F)cc2)c2ccc(-c3cccnc3)cc2c1=O [Compound 60, 1-(4-fluorophenyl)-4-oxo-6-(pyridin-3-yl)-1,4-dihydroquinoline-3-carboxamide] | 277 nM | 1.33%
